The values below come from PubChem BioAssay (NCI).

Where “and” joins values, the source holds several entries; their conditions need not be identical. Identical values can stand only once.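 Interpolation was linear, between the two tested concentrations surrounding the appropriate level; five concentrations were tested over 48 hours in 96-well plates. Here, GI50 denotes the concentration required for 50% inhibition of growth. The concentration for full growth arrest is given as TGI.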 Bounds are passed on as bounds.

Some test systems named below: MOLT-4 leukemia; NCI-H460 lung; SK-MEL-28 melanoma; K-562 leukemia; HL-60(TB) leukemia; U251 CNS; SF-268 CNS; A498 renal; SW-620 colon; NCI/ADR-RES ovarian.
What all share (assay): NCI anticancer screen, dose series, 48 h

With `Nc1c(C(=O)c2cccc(C#CCN3CCOCC3)c2)cnn1-c1ccc(F)cc1`, the GI50 with MOLT-4 leukemia was over 25 µM; in the assay on NCI-H460 lung, over 16.5 µM; in the assay on SK-MEL-28 melanoma it was over 25 µM; in the assay on K-562 leukemia, 7.91 µM; in the assay on HL-60(TB) leukemia, 16.4 µM; in the assay with U251 CNS, over 21 µM. The GI50 was over 25 µM in the assay on SF-268 CNS, 11.1 µM with A498 renal, 9.28 µM in the assay on SW-620 colon and 8.23 µM in the assay on NCI/ADR-RES ovarian. The TGI with MOLT-4 leukemia, in the assay with NCI-H460 lung, with SK-MEL-28 melanoma, in the assay with K-562 leukemia, in the assay on HL-60(TB) leukemia and in the assay with U251 CNS was over 25 µM in each case. For the same compound, the TGI in the assay on SF-268 CNS, in the assay on A498 renal, with SW-620 colon and with NCI/ADR-RES ovarian was over 25 µM throughout.
As to `S=C=NCc1ccccc1`, the TGI with MOLT-4 leukemia was 4.37 µM; in the assay with NCI-H460 lung, 24.5 µM; with SK-MEL-28 melanoma, 10.2 µM; in the assay with K-562 leukemia, over 19.9 µM; with HL-60(TB) leukemia, 3.95 µM; in the assay on U251 CNS it was 12.2 µM. Further, the TGI was 13.5 µM with SF-268 CNS, 14 µM in the assay with A498 renal, over 37.3 µM in the assay with SW-620 colon and over 32 µM with NCI/ADR-RES ovarian.
As for `Nc1ncnc2c(C3OC(CO)C(O)C3O)[nH]nc12` (stereo unspecified), the GI50 in the assay with MOLT-4 leukemia was 3.59 µM and 2.01 µM; in the assay on NCI-H460 lung, 0.0434 µM; in the assay on SK-MEL-28 melanoma, 2.64 µM and 1.69 µM; with K-562 leukemia it was 0.0459 µM; in the assay on HL-60(TB) leukemia, 0.0142 µM; with U251 CNS, 1.39 µM. For the same compound, the GI50 is 0.204 µM and 0.452 µM in the assay with SF-268 CNS; 0.203 µM with A498 renal; 0.0592 µM in the assay with SW-620 colon; 0.0484 µM in the assay with NCI/ADR-RES ovarian. For the same compound, the TGI was 38.3 µM in the assay with MOLT-4 leukemia; 2.12 µM and 1.44 µM with NCI-H460 lung; 30.6 µM and 25.4 µM in the assay with SK-MEL-28 melanoma; 2.03 µM in the assay with K-562 leukemia; 0.111 µM in the assay on HL-60(TB) leukemia; 25.4 µM with U251 CNS. In addition, the TGI with SF-268 CNS was 14 µM and 35.9 µM; in the assay with A498 renal, 3.98 µM and 4.78 µM; in the assay with SW-620 colon it was 3.31 µM and 9.17 µM; with NCI/ADR-RES ovarian it was 2.85 µM and 1.17 µM.
On to `Nc1nc(N)c2c(ccc3nccc32)[nH]1`, for which the GI50 in the assay with MOLT-4 leukemia was 3.12 µM; in the assay with NCI-H460 lung, 0.439 µM; in the assay with SK-MEL-28 melanoma, 14.7 µM; with K-562 leukemia, 0.319 µM; in the assay on HL-60(TB) leukemia it was 2.53 µM; with U251 CNS, 3.22 µM. Also, the GI50 with SF-268 CNS was 2.11 µM; in the assay on A498 renal, 18.3 µM; in the assay on SW-620 colon it was 1.03 µM; with NCI/ADR-RES ovarian, 6.61 µM. Further, the TGI in the assay with MOLT-4 leukemia is over 92.1 µM; in the assay on NCI-H460 lung, 14.5 µM; with SK-MEL-28 melanoma, over 93.8 µM; in the assay on K-562 leukemia, over 100 µM; with HL-60(TB) leukemia, over 78.8 µM; with U251 CNS, over 69.5 µM. For the same compound, the TGI in the assay with SF-268 CNS is 56.2 µM; in the assay with A498 renal, 98.3 µM; in the assay with SW-620 colon, over 77.3 µM; in the assay with NCI/ADR-RES ovarian it was over 100 µM.
`C#C[C@@]1(O)[C@@H](CO)O[C@@H](n2ccc3c(N)ncnc32)[C@@H]1O`: the GI50 is 0.614 µM in the assay with MOLT-4 leukemia; 0.473 µM in the assay with NCI-H460 lung; 3.99 µM with SK-MEL-28 melanoma; 0.806 µM with K-562 leukemia; 1.57 µM in the assay on HL-60(TB) leukemia; 2.44 µM with U251 CNS. For the same compound, the results for the GI50 with SF-268 CNS, in the assay with SW-620 colon and with NCI/ADR-RES ovarian were 2.33 µM, 0.493 µM and 0.791 µM, respectively. Also, the TGI in the assay on MOLT-4 leukemia is over 100 µM; with NCI-H460 lung it was 10.6 µM; in the assay on SK-MEL-28 melanoma, 20.2 µM; with K-562 leukemia, over 100 µM; in the assay on HL-60(TB) leukemia, 5.49 µM; in the assay on U251 CNS it was 11.8 µM. In addition, the TGI with SF-268 CNS came to 26.1 µM; in the assay on SW-620 colon it was 12.7 µM; with NCI/ADR-RES ovarian, 7.28 µM.
As for `OCCNc1ncnc2c1ncn2C1OC(CO)C(O)C1O` (stereo unspecified), the TGI in the assay on NCI-H460 lung, with SK-MEL-28 melanoma, in the assay with HL-60(TB) leukemia, in the assay with U251 CNS, in the assay with SF-268 CNS and in the assay on A498 renal was over 100 µM each time. Moreover, the TGI in the assay on SW-620 colon and with NCI/ADR-RES ovarian was over 100 µM in each case.
Regarding `CCOC(=O)c1ccc(Nc2sc(C(=O)c3cccc([N+](=O)[O-])c3)c(N)c2C#N)cc1`, the GI50 was 0.203 µM in the assay with MOLT-4 leukemia; 0.0519 µM with NCI-H460 lung; 8.32 µM with SK-MEL-28 melanoma; 0.0375 µM with K-562 leukemia; 0.0607 µM with U251 CNS; 0.198 µM with SF-268 CNS. Further, the values for the GI50 in the assay on A498 renal, with SW-620 colon and with NCI/ADR-RES ovarian were 0.0827 µM, 0.0591 µM and 0.0521 µM, respectively. Besides, the TGI was 6.59 µM in the assay with MOLT-4 leukemia; 4.14 µM with NCI-H460 lung; over 59.9 µM in the assay with SK-MEL-28 melanoma; 6.53 µM in the assay on K-562 leukemia; 3.86 µM in the assay with U251 CNS; 21 µM in the assay with SF-268 CNS. Moreover, the TGI with A498 renal was 5.04 µM; in the assay with SW-620 colon, 6.63 µM; in the assay on NCI/ADR-RES ovarian, 25.7 µM.
In the case of `ICCC(c1ccccc1)(c1ccccc1)c1ccccc1`, the GI50 in the assay on MOLT-4 leukemia is 2.57 µM; in the assay with SK-MEL-28 melanoma it was 3.4 µM; with K-562 leukemia, 1.67 µM; in the assay on HL-60(TB) leukemia, 1.72 µM; with U251 CNS, 3.48 µM; in the assay on SF-268 CNS it was 4.4 µM. Further, the GI50 in the assay with NCI/ADR-RES ovarian was 11.1 µM. Also, the TGI was found to be 8.97 µM in the assay on MOLT-4 leukemia; 12.5 µM in the assay on SK-MEL-28 melanoma; 4.93 µM with K-562 leukemia; 3.88 µM in the assay with HL-60(TB) leukemia; 11.3 µM in the assay on U251 CNS; 16.8 µM in the assay on SF-268 CNS. This compound also showed a TGI in the assay on NCI/ADR-RES ovarian of 29.5 µM.
`O=C(O)C[O][Sb][O]CC(=O)O`: the GI50 in the assay with MOLT-4 leukemia, with NCI-H460 lung, in the assay with SK-MEL-28 melanoma, with K-562 leukemia, with U251 CNS and with SF-268 CNS was over 100 µM throughout. For the same compound, the GI50 in the assay on A498 renal, in the assay with SW-620 colon and in the assay with NCI/ADR-RES ovarian was over 100 µM throughout. Further, the TGI with MOLT-4 leukemia, in the assay on NCI-H460 lung, with SK-MEL-28 melanoma, in the assay on K-562 leukemia, in the assay on U251 CNS and in the assay on SF-268 CNS was over 100 µM throughout. Further, the TGI in the assay on A498 renal, with SW-620 colon and with NCI/ADR-RES ovarian was over 100 µM in each case.
